{"source": "patent US6313170A", "about": "“L-threonate ferrous, as well as pharmaceutical composition and use for improving and treating human anemia thereof” (priority 1997, dated 2001)", "system": "IDA for Children", "settings": "for FEP / RBC / SF / Hb: tablets 7.5 mg Fe + 30 mg vitamin C", "experimental": "Subjects: Thirty school-age children aged from 8 to 13 years of Haerbin city of China.\nMethods: Blood samples of 10 μl from ear and 5 ml from arm vein for each patient were collected for measurement.\n(1) Measurement of RBC: 10 μl blood sample was added to 2 ml diluent and the mixture was shaken completely. One drop of this suspending solution taken by circle glass bar was poured into counting cell. RBC was countered through microscope by laying counting plate on the microstat.\n(2) Measurement of HB: The ferric cyanide method was used to determine the HB. 10 μl ear blood sample was added to 5 ml acid diluent to obtain the completely mixed solution by shaking. HB was measured by SH hemoglobinometer manufactured by Huauang Instrument Company of Jianshu Province. Ferric cyanide was purchased from Medical Examination Institute of Shanghai.\n(3) Measurement of FEP: To add 0.05 ml whole blood sample anticoagulated by heparin to 3.5 ml of acid anhydrous ethyl alcohol, the mixture was shaken for 5 min and then was centrifugalized with speed of 3000 r/min. The centrifugate of mixture was used for the measurement of fluorometric method (400 nm for exciting optical filter and 600 nm for emitting optical filter).\nAccording to formula given below, the FEP can be calculated. [formula]\nWhere Fu and PCV represent fluorescence extent and hematocrit, respectively.\nTo centifugalized 2 ml whole blood sample, the upper solution was used for measurement of SF through the method of radio-immune competition-inhibition program.\nAmong these 62 IDA patients, 30 children were randomly selected as treatment group of ferrous L-threonate.\nAnother 30 children with IDA were selected from another prime school with the same diagnosing standards and were established as control group.\nObservation time for treatment group and control group was 30 days period and during that period, there were no any intervention on children's activity and food.\n(3) Dosages: Each child of treatment group was administered ferrous L-threonate tablets twice a day, one tablet each time. While normal control group was treated with placebo by the same method.", "key": {"[1]": {"settings": "after treatment (30 days), twice a day"}}, "note": "Like-named read-outs stand apart in the source and are kept apart here.", "data": [{"substance": "ferrous L-threonate", "values": [{"measurement": "variations of Hb, SF and RBC compared with control group", "setting": "30 days of treatment, P<0.01", "result": "significantly better compared with those of control group (P<0.01)"}, {"measurement": "FEP", "setting": "after treatment (30 days)", "result": 445.1, "unit": "µg/L"}, {"measurement": "RBC", "setting": "[1]", "result": "401.5 ± 12.4 10^4 /mm^3"}, {"measurement": "SF", "setting": "[1]", "result": "17.01 ± 1.99", "unit": "µg/L"}, {"measurement": "Hb", "setting": "before treatment, twice a day", "result": "104.8 ± 6.1", "unit": "g/L"}, {"measurement": "RBC", "setting": "before treatment, twice a day", "result": "387 ± 6.67 10^4 /mm^3"}, {"measurement": "SF", "setting": "before treatment, twice a day", "result": "12.45 ± 1.50", "unit": "µg/L"}, {"measurement": "number of children with Hb > 120 g/L and ΔHb > 10 g/L", "setting": "n=30, tablets, 30 days", "result": 17}, {"measurement": "number of children with no effectiveness", "setting": "n=30, tablets, 30 days", "result": 6}, {"measurement": "number of children with ΔHb > 5 g/L", "setting": "n=30, tablets, 30 days", "result": 7}, {"measurement": "share of children with Hb > 120 g/L and ΔHb > 10 g/L", "setting": "n=30, tablets, 30 days", "result": 56.7, "unit": "%"}, {"measurement": "share of children with no effectiveness", "setting": "n=30, tablets, 30 days", "result": 20.0, "unit": "%"}, {"measurement": "share of children with ΔHb > 5 g/L", "setting": "n=30, tablets, 30 days", "result": 23.3, "unit": "%"}, {"measurement": "FEP", "setting": "printed under after treatment (30 days)", "result": "120.4 ± 11.2", "unit": "µg/L"}, {"measurement": "Hb", "setting": "printed under before treatment", "result": "669.1 ± 72.0", "unit": "g/L"}, {"measurement": "effective rate of improving the case of IDA for children", "setting": "tablets, 30 days", "result": 80, "unit": "%"}, {"measurement": "variations of Hb, SF and RBC before and after treatment", "setting": "treatment group, P<0.01", "result": "understandingly significant difference (P<0.01)"}]}]}
